One assay has as its target T1, LRRK2 G2019S (Homo sapiens, UniProt Q5S007, G2019S).
T1 construct: purchased Invitrogen (Life Technologies Corporation)
Briefly: LRRK2 G2019S kinase activity assay (LanthaScreen TR-FRET). The assay is classed as biochemical. As to conditions: 250 pM LRRK2 G2019S, 1.3 mM ATP, 3 h at 30° C.; n≥2 tests. As for the experimental part:
(§1) LRRK2 kinase activity was measured using a LanthaScreen kinase activity assay available from Invitrogen (Life Technologies Corporation). The assay is a homogeneous time resolved-fluorescence resonance energy transfer (TR-FRET) assay that measures phosphorylation of a fluorescein-labelled peptide substrate Fluorescein-ERM LRRKtide obtainable from Life Technologies Corporation as a result of LRRK2 kinase activity. The phosphorylated peptide is recognized by a terbium-labelled phospho-specific anti-LRRKtide antibody (pLRRKtide antibody), obtainable from Life Technologies Corporation and, subsequently, the phosphorylated LRRKtide can be quantified by the extent of TR-FRET between the terbium donor and fluorescein acceptor. The LRRK2 kinase was obtained from Invitrogen (Life Technologies Corporation) and comprises residue 970 to 2527 of the full length human wild-type LRRK2 kinase, or a similar sequence with the G2019S mutation. As discussed above, this mutation increases the kinase activity relative to the wild type. The kinase reactions were performed in a 20 μL volume in 384-well plates. […] The mixture was further incubated for 30 minutes at RT. […] The measurement was repeated 30 times for fluorescein and 30 times for terbium emission with a 1000 μs time window between repeats. TR-FRET measurements were performed on a Biotek Synergy plate. The TR-FRET signal was calculated as the emission-ratio at 520 nm over 495 nm. The TR-FRET ratio readout for test compounds was normalized to 0% inhibition corresponding to TR-FRET ratio measured in control wells with no inhibition of the kinase activity and 100% inhibition corresponding to TR-FRET ratio measured in control wells with inhibitor. […] C is the IC50 value and D is the Hill slope coefficient. IC50 estimates were obtained from independent experiment and the logarithmic average was calculated.
On the technique in general: Time-resolved FRET reads energy transfer from a long-lived donor to a nearby acceptor.

The next assay concerns the target T2, LRRK2 WT (Homo sapiens, UniProt Q5S007).
T2 construct: comprises residue 970 to 2527 of the full length human wild-type LRRK2 kinase; purchased Invitrogen (Life Technologies Corporation)
Briefly: LRRK2 wild-type kinase activity assay (LanthaScreen TR-FRET). It counts as biochemical. As to conditions: 1 nM LRRK2 WT, 1.3 mM ATP, 3.5 h at 30° C.; n≥2 tests. Here is the method: as §1

T2 sequence (Q5S007 970-2527): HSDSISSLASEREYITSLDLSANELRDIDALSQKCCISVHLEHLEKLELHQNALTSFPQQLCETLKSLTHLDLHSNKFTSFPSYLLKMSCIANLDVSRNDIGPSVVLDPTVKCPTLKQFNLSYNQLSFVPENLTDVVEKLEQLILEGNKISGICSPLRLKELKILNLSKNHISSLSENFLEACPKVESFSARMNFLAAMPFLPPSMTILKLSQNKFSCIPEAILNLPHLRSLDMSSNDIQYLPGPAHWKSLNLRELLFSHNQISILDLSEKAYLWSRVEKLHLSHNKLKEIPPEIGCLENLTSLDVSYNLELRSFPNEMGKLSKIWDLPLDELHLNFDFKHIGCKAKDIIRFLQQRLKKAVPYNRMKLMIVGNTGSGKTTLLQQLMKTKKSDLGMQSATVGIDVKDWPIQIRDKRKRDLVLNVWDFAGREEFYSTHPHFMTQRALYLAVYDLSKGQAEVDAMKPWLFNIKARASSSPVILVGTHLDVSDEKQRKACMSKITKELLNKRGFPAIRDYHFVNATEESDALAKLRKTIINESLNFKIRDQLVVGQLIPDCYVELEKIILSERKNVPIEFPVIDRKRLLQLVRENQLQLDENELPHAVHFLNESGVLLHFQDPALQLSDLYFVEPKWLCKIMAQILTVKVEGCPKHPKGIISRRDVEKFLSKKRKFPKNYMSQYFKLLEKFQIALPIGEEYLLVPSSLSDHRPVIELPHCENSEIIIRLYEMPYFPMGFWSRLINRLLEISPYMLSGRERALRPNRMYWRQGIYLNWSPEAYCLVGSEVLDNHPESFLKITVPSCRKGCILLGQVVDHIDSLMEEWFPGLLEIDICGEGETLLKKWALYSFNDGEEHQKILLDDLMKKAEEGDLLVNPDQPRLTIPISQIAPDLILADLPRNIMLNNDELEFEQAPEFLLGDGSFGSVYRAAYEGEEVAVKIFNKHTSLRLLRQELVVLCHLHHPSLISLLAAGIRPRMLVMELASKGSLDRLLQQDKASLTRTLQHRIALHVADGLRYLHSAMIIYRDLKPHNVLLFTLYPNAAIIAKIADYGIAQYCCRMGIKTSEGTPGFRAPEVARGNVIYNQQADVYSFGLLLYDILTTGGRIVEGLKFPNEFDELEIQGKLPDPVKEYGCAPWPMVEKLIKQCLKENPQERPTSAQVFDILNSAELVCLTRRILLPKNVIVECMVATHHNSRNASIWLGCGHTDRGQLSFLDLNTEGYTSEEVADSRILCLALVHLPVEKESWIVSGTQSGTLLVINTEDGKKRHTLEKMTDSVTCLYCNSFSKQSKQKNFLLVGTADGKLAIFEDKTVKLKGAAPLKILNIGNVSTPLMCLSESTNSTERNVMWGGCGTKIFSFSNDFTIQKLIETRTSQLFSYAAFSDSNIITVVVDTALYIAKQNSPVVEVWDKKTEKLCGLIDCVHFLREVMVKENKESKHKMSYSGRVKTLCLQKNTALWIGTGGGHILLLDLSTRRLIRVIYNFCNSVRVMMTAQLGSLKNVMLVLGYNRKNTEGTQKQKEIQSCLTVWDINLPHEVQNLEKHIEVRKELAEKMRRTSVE
T1 sequence (Q5S007 970-2527 G2019S): as the sequence (Q5S007 970-2527) above, with G1050S counted along it

A word on the IC50: it is the concentration that inhibits the measured activity by half. Consider `Cc1c2c(nn1[C@@H]1CCOC[C@@H]1C)OCCCn1nc(Cl)c3cnc(nc31)N2` (single isomer, unassigned) [Example 21, 8-Chloro-3-methyl-2-((3R,4S) or (3S,4R) or (3S,4S) or (3R,4R)-3-methyltetrahydro-2H-pyran-4-yl)-2,4,12,13-tetrahydro-11H-5,7-(azenometheno)dipyrazolo[3,4-b:5′,1′-g][1]oxa[4,6,8]triazacycloundecine], for which the IC50 is 3.7 nM on LRRK2 G2019S and 10 nM on LRRK2 WT.
On the same counts, the results for `Cc1c2c(nn1[C@@H]1CCOC[C@@H]1C)OCCCn1nc(Cl)c3cnc(nc31)N2` (single isomer, unassigned) [Example 22, 8-Chloro-3-methyl-2-((3R,4S) or (3S,4R) or (3S,4S) or (3R,4R)-3-methyltetrahydro-2H-pyran-4-yl)-2,4,12,13-tetrahydro-11H-5,7-(azenometheno)dipyrazolo[3,4-b:5′,1′-g][1]oxa[4,6,8]triazacycloundecine] are 3.5 nM and 10 nM.
The like results for `Cc1c2c(nn1[C@@H]1CCOC[C@@H]1C)OCCCn1nc(Cl)c3cnc(nc31)N2` (single isomer, unassigned) [Example 23, 8-Chloro-3-methyl-2-((3R,4S) or (3S,4R) or (3S,4S) or (3R,4R)-3-methyltetrahydro-2H-pyran-4-yl)-2,4,12,13-tetrahydro-11H-5,7-(azenometheno)dipyrazolo[3,4-b:5′,1′-g][1]oxa[4,6,8]triazacycloundecine] were, in that order, 20 nM and 44 nM.
On the same counts, the results for `Cc1c2c(nn1[C@@H]1CCOC[C@@H]1C)OCCCn1nc(Cl)c3cnc(nc31)N2` (single isomer, unassigned) [Example 24, 8-Chloro-3-methyl-2-((3R,4S) or (3S,4R) or (3S,4S) or (3R,4R)-3-methyltetrahydro-2H-pyran-4-yl)-2,4,12,13-tetrahydro-11H-5,7-(azenometheno)dipyrazolo[3,4-b:5′,1′-g][1]oxa[4,6,8]triazacycloundecine] are 4.7 nM and 14 nM.
In the case of `Cc1c2c(nn1[C@H]1CCCCOC1)OCCCn1nc(Cl)c3cnc(nc31)N2` (single isomer, unassigned) [Example 28, (+)-(R) or (S)-8-Chloro-3-methyl-2-(oxepan-3-yl)-2,4,12,13-tetrahydro-11H-5,7-(azenometheno)dipyrazolo[3,4-b:5′,1′-g][1]oxa[4,6,8]triazacycloundecine], the IC50 at LRRK2 G2019S stood at 5.3 nM; at LRRK2 WT, 19 nM.
Consider `Cc1c2c(nn1[C@@H]1CC1(F)F)OCCCn1nc(Cl)c3cnc(nc31)N2` (single isomer, unassigned) [Example 39, (−)-(R) or (S)-8-Chloro-2-(2,2-difluorocyclopropyl)-3-methyl-2,4,12,13-tetrahydro-11H-5,7-(azenometheno)dipyrazolo[3,4-b:5′,1′-g][1]oxa[4,6,8]triazacycloundecine], for which the values for the IC50 on LRRK2 G2019S and at LRRK2 WT were 7.8 nM and 19 nM, respectively.
Regarding `Cc1c2c(nn1[C@H]1CCOC(C)(C)C1)OCCCn1nc(Cl)c3cnc(nc31)N2` (single isomer, unassigned) [Example 43, (−)-(R) or (S)-8-Chloro-2-(2,2-dimethyltetrahydro-2H-pyran-4-yl)-3-methyl-2,4,12,13-tetrahydro-11H-5,7-(azenometheno)dipyrazolo[3,4-b:5′,1′-g][1]oxa[4,6,8]triazacycloundecine], the IC50 amounted to 5.3 nM at LRRK2 G2019S and 17 nM on LRRK2 WT.
With `Cc1c2c(nn1[C@H]1CCOC[C@]1(C)F)OCCCn1nc(Cl)c3cnc(nc31)N2` (single isomer, unassigned) [Example 48, (−)-8-Chloro-2-((3R,4S) or (3S,4R)-3-Fluoro-3-methyltetrahydro-2H-pyran-4-yl)-3-methyl-2,4,12,13-tetrahydro-11H-5,7-(azenometheno)dipyrazolo[3,4-b:5′,1′-g][1]oxa[4,6,8]triazacycloundecine], the values for the half-inhibitory concentration (IC50) at LRRK2 G2019S and on LRRK2 WT were 18 nM and 90 nM, respectively.
In the case of `Cc1c2c(nn1[C@@H]1CCOC3(CC3)C1)OCCCn1nc(Cl)c3cnc(nc31)N2` (single isomer, unassigned) [Example 54, (−)-(R) or (S)-8-Chloro-3-methyl-2-(4-oxaspiro[2.5]octan-7-yl)-2,4,12,13-tetrahydro-11H-5,7-(azenometheno)dipyrazolo[3,4-b:5′,1′-g][1]oxa[4,6,8]triazacycloundecine], the figures for the IC50 on LRRK2 G2019S and at LRRK2 WT were 0.88 nM and 2.6 nM, respectively.
Consider `CCc1c2c(nn1[C@@H]1CCOC[C@H]1F)OCCCn1nc(Cl)c3cnc(nc31)N2` (single isomer, unassigned) [Example 55, (+)-8-Chloro-3-ethyl-2-((3R,4S) or (3S,4R)-3-fluorotetrahydro-2H-pyran-4-yl)-2,4,12,13-tetrahydro-11H-5,7-(azenometheno)dipyrazolo[3,4-b:5′,1′-g][1]oxa[4,6,8]triazacycloundecine], for which the figures for the IC50 at LRRK2 G2019S and on LRRK2 WT were 1.5 nM and 5.6 nM, respectively.
On the same counts, the results for `CCc1c2c(nn1[C@@H]1CCOC[C@H]1F)OCCCn1nc(Cl)c3cnc(nc31)N2` (single isomer, unassigned) [Example 56, (−)-8-Chloro-3-ethyl-2-((3R,4S) or (3S,4R)-3-fluorotetrahydro-2H-pyran-4-yl)-2,4,12,13-tetrahydro-11H-5,7-(azenometheno)dipyrazolo[3,4-b:5′,1′-g][1]oxa[4,6,8]triazacycloundecine] are 2 nM and 4.9 nM.
Consider `[2H]C([2H])([2H])c1c2c(nn1[C@@H]1CCOC[C@H]1F)OCCCn1nc(Cl)c3cnc(nc31)N2` (single isomer, unassigned) [Example 63, (+)-8-Chloro-2-((3R,4S) or (3S,4R)-3-fluorotetrahydro-2H-pyran-4-yl)-3-(methyl-d3)-2,4,12,13-tetrahydro-11H-5,7-(azenometheno)dipyrazolo[3,4-b:5′,1′-g][1]oxa[4,6,8]triazacycloundecine], for which the values for the concentration for half-maximal inhibition (IC50) on LRRK2 G2019S and at LRRK2 WT were 4 nM and 11 nM, respectively.
On the same counts, the results for `[2H]C([2H])([2H])c1c2c(nn1[C@H]1CCOC3(CC3)C1)OCCCn1nc(Cl)c3cnc(nc31)N2` (single isomer, unassigned) [Example 64, (−)-(R) or (S)-8-Chloro-3-(methyl-d3)-2-(4-oxaspiro[2.5]octan-7-yl)-2,4,12,13-tetrahydro-11H-5,7-(azenometheno)dipyrazolo[3,4-b:5′,1′-g][1]oxa[4,6,8]triazacycloundecine] are 5 nM and 11 nM.
The like results for `[2H]C([2H])([2H])c1c2c(nn1[C@H]1CCOC3(CC3)C1)OCCCn1nc(Cl)c3cnc(nc31)N2` (single isomer, unassigned) [Example 65, (+)-(R) or (S)-8-Chloro-3-(methyl-d3)-2-(4-oxaspiro[2.5]octan-7-yl)-2,4,12,13-tetrahydro-11H-5,7-(azenometheno)dipyrazolo[3,4-b:5′,1′-g][1]oxa[4,6,8]triazacycloundecine] were, in that order, 1.7 nM and 4.8 nM.
In the case of `Cc1c2c(nn1C)OCCCn1nc(Cl)c3cnc(nc31)N2` [Example 1, 8-Chloro-2,3-dimethyl-2,4,12,13-tetrahydro-11H-5,7-(azenometheno)dipyrazolo[3,4-b:5′,1′-g][1]oxa[4,6,8]triazacycloundecine], the IC50 at LRRK2 G2019S was determined as 18 nM; at LRRK2 WT, 55 nM.
With `Cc1nn2c3nc(ncc13)Nc1c(nn(C3CCOCC3)c1C)OCCC2` [Example 8, 3,8-Dimethyl-2-(tetrahydro-2H-pyran-4-yl)-2,4,12,13-tetrahydro-11H-5,7-(azenometheno)dipyrazolo[3,4-b:5′,1′-g][1]oxa[4,6,8]triazacycloundecine], the values for the IC50 on LRRK2 G2019S and at LRRK2 WT were 21 nM and 93 nM, respectively.
The like results for `Cc1c2c(nn1C1CCOCC1)OCCCn1nc(C#N)c3cnc(nc31)N2` [Example 9, 3-Methyl-2-(tetrahydro-2H-pyran-4-yl)-2,4,12,13-tetrahydro-11H-5,7-(azenometheno)dipyrazolo[3,4-b:5′,1′-g][1]oxa[4,6,8]triazacycloundecine-8-carbonitrile] were, in that order, 57 nM and 110 nM.
With `Cc1c2c(nn1CC13CC(CO1)C3)OCCCn1nc(Cl)c3cnc(nc31)N2` [Example 11, 2-((2-Oxabicyclo[2.1.1]hexan-1-yl)methyl)-8-chloro-3-methyl-2,4,12,13-tetrahydro-11H-5,7-(azenometheno)dipyrazolo[3,4-b:5′,1′-g][1]oxa[4,6,8]triazacycloundecine], the values for the IC50 on LRRK2 G2019S and at LRRK2 WT were 4.6 nM and 14 nM, respectively.

Values taken from US11780851B2, “LRRK2 inhibitors” (H. Lundbeck A/S, priority 2021, dated 2023).
